Earlier results on 2 compounds are cited in patent US20110152382A1, “Composition of molecular elements for phosphorylase kinase inhibition” (priority 2009, published 2011).

In data set [1] the test system is phosphorylase kinase. Particulars: previously reported by the inventor.
For data set [2], the system named is phosphorylase kinase.

Consider `COc1cc(/C=C/C(=O)CC(=O)/C=C/c2ccc(O)c(OC)c2)ccc1O` [curcumin, diferuloylmethane], for which the “phosphorylase kinase activity in psoriatic skin” value in the data set on phosphorylase kinase [1] was “suppression of phosphorylase kinase activity”. Also, the anti-phosphorylase kinase activity entry with phosphorylase kinase [2] is reported as “selective phosphorylase kinase inhibitor”. Consider curcumin glucuronate, for which, in the data set on phosphorylase kinase [2], the anti-phosphorylase kinase activity result is “do not have anti-phosphorylase kinase activity”.
